The nature of series [1]: Binding affinity to gp41 in HIV1 by fluorescence analysis. On the set-up: species or system Human immunodeficiency virus 1.
Series [2] is described as follows: Inhibition of HIV1 3B gp41-mediated cell-cell fusion between viral envelope expressing virus-infected HL2/3 cells to human MAGI-CCR5 cells after 6 hrs by luciferase reporter gene assay. Format: cell-based. As to conditions: Human immunodeficiency virus 1, MAGI-CCR5, 6 h.
Series [3] in a line: Cytotoxicity against human MAGI-CCR5 cells assessed as cell viability by MTS assay. Format: cell-based.

Some results are limits rather than exact numbers.

For the compound `O=C(CN1C(=O)N/C(=C/c2ccccc2OCc2ccc(C(=O)O)cc2)C1=O)Nc1ccccc1`, the Ki in series [1] is 7.1 µM. In series [2], this compound registered an IC50 of 34 µM. In addition, in series [3], the CC50 is above 50 µM.

On to `Cc1ccc(-c2nc(SCC(=O)Nc3ccc(C)c(C)c3)n3[nH]c(=O)cc3n2)cc1`, for which, in series [1], the Ki turned out to be 0.46 µM. Besides, half-maximal inhibition in series [2] (IC50) was put at 13.3 µM. Moreover, the CC50 in series [3] is above 50 µM.

For `O=C(O)c1cccc(N/N=C2\C(=O)N(c3nc(-c4ccccc4)cs3)N=C2c2ccccc2)c1`, the inhibitory constant (Ki) in series [1] turned out to be 0.2 µM. The compound also yielded an IC50 in series [2] of 4.64 µM. Also, in series [3], the CC50 came out at 53 µM.

In series [1], `Cc1cccc(NC(=O)CN2C(=O)N/C(=C/c3cccn3-c3cccc(C(=O)O)c3)C2=O)c1` came in with a Ki of 4.45 µM. The compound also came in with an IC50 in series [2] of 160 µM. Also, the CC50 in series [3] is above 100 µM.

In series [1], `COc1ccc(C(=O)Oc2ccc(Br)cc2/C=N/N=C2\NC(=O)[C@H](CC(=O)O)S2)cc1` registered a Ki of 1.6 µM. The compound also showed an IC50 in series [2] of 41.1 µM. Besides, in series [3], the half-maximal cytotoxic concentration (CC50) was determined as 208 µM.

`CCc1nc2nc(CSc3nnc(NC(=O)COc4ccc(C)c(C)c4)s3)cc(O)n2n1` had a Ki in series [1] of 2.55 µM. In addition, the IC50 in series [2] amounted to 53.5 µM. The CC50 in series [3] is above 50 µM.

The compound `Cc1ccc(OCCn2cc(/C=C/C(=O)O)c3ccccc32)cc1` yielded a Ki in series [1] of 13 µM. The compound also returned an IC50 in series [2] of 43 µM. Also, the CC50 in series [3] was above 50 µM.
